Experimental data as given in patent publication US8728537B2, “Compositions for improvement of wound healing” (Cytotools AG, priority 2003, dated 2014).

Test system: MRC 5 fibroblasts
Experiment: Cell biological test of active substance: proliferation of MRC 5 fibroblasts by quantification of cellular DNA after DAPI staining
Assay type: cell-based
Conditions: solutions containing only RC (50 μM) or only chlorite (100 μM)
Protocol: The MRC 5 cells are seeded at 400 cells/cm^2 in a 24 well cell culture plate. The subsequent cultivation is carried out in an incubator 37° C. and 5 vol. % CO2 in a water vapor saturated atmosphere. After 24 hours of precultivation, the culture medium is suctioned off and the cells are washed with PBS.
After 24, 48 and 72 hours, the proliferation of the cells is determined by quantification of the cellular DNA in a fluorometer (Novostar-Company: BMG Labtechnologies) after DAPI staining. Here, the increased fluorescence in the samples is equal to a proliferation of the cells.
The plate to be measured is washed once per well with 500 μl PBS and then 250 μl PBS is placed in each well. 250 μl lysis buffer are added and the cells are lysed in a shaker at the lowest setting for 30 min at RT. Subsequently, 500 μl DAPI solution is added and the plate is left to stand for a further 10 min at RT.
The plate is measured at 355 nm ex. and 460 nm em. in the Novostar. Normally, work is carried out with a gain adjustment of 1400-1600.
The multiple determinations are averaged and the error values are calculated. The data obtained is evaluated graphically.

## chlorite
  effect on the growth behaviour of the fibroblasts: no effect whatsoever
